From US20030186434A1, “Method of forming vertebrate pancreas in vitro” (priority 2002, published 2003)

Tested on: blastopore upper lip of early gastrula of a Xenopus
Assay: Tissue differentiation of blastopore upper lip treated with retinoic acid for three hours, light microscopy
Conditions: treated 3 hours, cultured 10 days

## CC1=C(/C=C/C(C)=C/C=C/C(C)=C/C(=O)O)C(C)(C)CCC1 [Retinoic acid, retinoic acid]
10^−4 M, 35 specimens
  Coelomic epithelium differentiated, specimens (%): 5 (14)
  Ear vesicle differentiated, specimens (%): 0 (0)
  Epidermis differentiated, specimens (%): 8 (23)
  Eye or its fragments differentiated, specimens (%): 0 (0)
  Gastric gland differentiated, specimens (%): 0 (0)
  Hemocyte differentiated, specimens (%): 0 (0)
  Intestinal epithelium differentiated, specimens (%): 34 (97)
  Mesenchyme differentiated, specimens (%): 32 (91)
  Muscle differentiated, specimens (%): 7 (20)
  Neural tissue differentiated, specimens (%): 0 (0)
  Notochord differentiated, specimens (%): 33 (94)
  Pancreas differentiated, specimens (%): 25 (71)
  Pharyngeal epithelium differentiated, specimens (%): 21 (60)
  Pronephros differentiated, specimens (%): 0 (0)
  Yolk-rich cell differentiated, specimens (%): 29 (83)
10^−5 M, 35 specimens
  Atypical epidermis differentiated, specimens (%): 0 (0)
  Cartilage differentiated, specimens (%): 3 (9)
  Cement gland differentiated, specimens (%): 0 (0)
  Coelomic epithelium differentiated, specimens (%): 5 (14)
  Ear vesicle differentiated, specimens (%): 0 (0)
  Epidermis differentiated, specimens (%): 13 (37)
  Eye or its fragments differentiated, specimens (%): 0 (0)
  Gastric gland differentiated, specimens (%): 9 (26)
  Hemocyte differentiated, specimens (%): 0 (0)
  Intestinal epithelium differentiated, specimens (%): 33 (94)
  Mesenchyme differentiated, specimens (%): 20 (57)
  Muscle differentiated, specimens (%): 4 (11)
  Neural tissue differentiated, specimens (%): 1 (3)
  Notochord differentiated, specimens (%): 25 (71)
  Pancreas differentiated, specimens (%): 15 (43)
  Pharyngeal epithelium differentiated, specimens (%): 19 (54)
  Pronephros differentiated, specimens (%): 12 (34)
  Yolk-rich cell differentiated, specimens (%): 30 (86)
10^−6 M, 35 specimens
  Atypical epidermis differentiated, specimens (%): 0 (0)
  Cartilage differentiated, specimens (%): 22 (63)
  Cement gland differentiated, specimens (%): 0 (0)
  Coelomic epithelium differentiated, specimens (%): 12 (34)
  Ear vesicle differentiated, specimens (%): 0 (0)
  Epidermis differentiated, specimens (%): 34 (97)
  Eye or its fragments differentiated, specimens (%): 0 (0)
  Gastric gland differentiated, specimens (%): 1 (3)
  Hemocyte differentiated, specimens (%): 0 (0)
  Intestinal epithelium differentiated, specimens (%): 4 (11)
  Mesenchyme differentiated, specimens (%): 35 (100)
  Muscle differentiated, specimens (%): 20 (57)
  Neural tissue differentiated, specimens (%): 15 (43)
  Notochord differentiated, specimens (%): 30 (86)
  Pancreas differentiated, specimens (%): 1 (3)
  Pharyngeal epithelium differentiated, specimens (%): 34 (97)
  Pronephros differentiated, specimens (%): 0 (0)
  Yolk-rich cell differentiated, specimens (%): 31 (89)
10^−7 M, 32 specimens
  Atypical epidermis differentiated, specimens (%): 0 (0)
  Cartilage differentiated, specimens (%): 16 (50)
  Cement gland differentiated, specimens (%): 0 (0)
  Coelomic epithelium differentiated, specimens (%): 5 (16)
  Ear vesicle differentiated, specimens (%): 0 (0)
  Epidermis differentiated, specimens (%): 31 (97)
  Eye or its fragments differentiated, specimens (%): 0 (0)
  Gastric gland differentiated, specimens (%): 0 (0)
  Hemocyte differentiated, specimens (%): 0 (0)
  Intestinal epithelium differentiated, specimens (%): 1 (3)
  Mesenchyme differentiated, specimens (%): 32 (100)
  Muscle differentiated, specimens (%): 24 (75)
  Neural tissue differentiated, specimens (%): 9 (28)
  Notochord differentiated, specimens (%): 31 (97)
  Pancreas differentiated, specimens (%): 0 (0)
  Pharyngeal epithelium differentiated, specimens (%): 30 (94)
  Pronephros differentiated, specimens (%): 0 (0)
  Yolk-rich cell differentiated, specimens (%): 24 (75)
10^−8 M, 20 specimens
  Atypical epidermis differentiated, specimens (%): 0 (0)
  Cartilage differentiated, specimens (%): 5 (25)
  Cement gland differentiated, specimens (%): 0 (0)
  Coelomic epithelium differentiated, specimens (%): 3 (15)
  Ear vesicle differentiated, specimens (%): 0 (0)
  Epidermis differentiated, specimens (%): 20 (100)
  Eye or its fragments differentiated, specimens (%): 0 (0)
  Gastric gland differentiated, specimens (%): 0 (0)
  Hemocyte differentiated, specimens (%): 0 (0)
  Intestinal epithelium differentiated, specimens (%): 0 (0)
  Mesenchyme differentiated, specimens (%): 20 (100)
  Muscle differentiated, specimens (%): 17 (85)
  Neural tissue differentiated, specimens (%): 2 (10)
  Notochord differentiated, specimens (%): 18 (90)
  Pancreas differentiated, specimens (%): 2 (10)
  Pharyngeal epithelium differentiated, specimens (%): 17 (85)
  Pronephros differentiated, specimens (%): 0 (0)
  Yolk-rich cell differentiated, specimens (%): 16 (80)
